US12422437B2, “Methods of screening for condensate-associated specificity and uses thereof” (Dewpoint Therapeutics, Inc., priority 2019, dated 2025)

Key:
Assay type in all cases: cell-based, human
[1] = system: stress granules (FUS, eIF3, G3BP1) in HeLa Kyoto, HeLa BAC FUS-GFP and iPS FUS-GFP cells; assay: Screen for macromolecule and tissue specificity on stress granules of arsenate-stressed cells (Example 2); settings: compound 1 μM, 5 μM or 25 μM for one hour, then 2 mM Potassium Arsenate 1 hour; confocal fluorescence imaging; FIGS. 5-10
Experimental: In brief, three cell lines (HeLa Kyoto, HeLa comprising a bacterial artificial chromosome (BAC) encoding FUS-GFP, and induced pluripotent stem cells (iPS) expressing FUS-GFP) were separately grown in culture. 1200 compounds from a compound library were exposed individually at concentrations of 1 μM, 5 μM, or 25 μM to one of the cell lines for one hour. For some compounds, this procedure was repeated for one or both of the other cell lines. […] Cells that were not exposed to the compounds (DMSO-only vehicle treatment) were used as controls. The cells were then exposed to arsenate stress for 1 hour to stimulate the formation of stress granules, using a final concentration of 2 mM Potassium Arsenate (Sigma A6631, diluted in PBS).
(§1) After stress treatment, the cells were fixed with a final concentration of 3.7% Formaldehyde (FA) for 15 minutes at room temperature. Subsequently, cells were washed using a plate washer, permeabilized (10 min at RT using 0.1% Triton X/PBS) and blocked (30 min with 0.2% Fish skin gelatin/PBS). For cells expressing FUS-GFP, GFP fluorescence was observed directly. For the other protein markers of interest a combination of anti-FUS (Sigma AMAb90549; 1:500), anti-eIF3 (Santa Cruz sc-137214; 1:500), and anti-G3BP1 (Invitrogen PA5-29455; 1:4000) antibodies and appropriate secondary antibodies (Life Technologies; Alexa 594 and 647) was applied to visualize FUS, eIF3, and G3BP1 protein in the cells.
(§2) A spinning disk confocal microscope was used to acquire images of the samples using confocal fluorescence at 405/488/561/640 nm. 40× (primary screen) and 20× (potency testing) air objective lenses were used to capture the images. The gain was set to 1.4 and binning to 1. The exposure times were adjusted to the fluorescence emission intensity specific for each label. Exposure times ranged from 100-300 ms. Appropriate filter settings were used, matching the excitation and emission spectra of the label. Image acquisition was automated, and the resulting data were analyzed using KNIME (Berthold et al., 2008, Data Analysis, Machine Learning and Applications. Studies in Classification, Data Analysis, and Knowledge Organization. Springer, Berlin, Heidelberg), CellProfiler (Carpenter et al., 2006, Genome Biol 7:R100); or, for potency testing, data were analyzed using Harmony (PerkinElmer, Waltham MA) and Vault (Collaborative Drug Discovery, Burlingame CA). Twenty-five imaging parameters were extracted for each image, including marker signal droplet count, area, shape, etc. For each imaging parameter, the Z′ factor for the entire plate was calculated according to the following formula: Z′=1−[3*(SD(pos)+SD(neg))/(Avg(pos)−Avg(neg))] where SD(pos) is the standard deviation of the positive control, SD(neg) is the standard deviation of the negative control, Avg(pos) is the average of the positive control and Avg(neg) is the average of the negative control.
In addition, z-scores were calculated for every test compound using the formula: z=(x−x)/S where x is the mean of the sample, and S is the standard deviation of the sample.

[2] = system: stress granules (FUS, eIF3, G3BP1) in HeLa Kyoto, HeLa BAC FUS-GFP and iPS FUS-GFP cells; assay: Screen for compounds altering FUS, eIF3 and G3BP1 levels in stress granules of arsenate-stressed cells (Example 1); settings: compound 1 μM, 5 μM or 25 μM for one hour, then 2 mM Potassium Arsenate 1 hour; confocal fluorescence imaging; FIGS. 1-4
Source text: Stress granules are condensates that form in the cytoplasm of cells under stress. Multiple proteins are known to be concentrated in stress granules, including FUS, eukaryotic initiation factor 3 (eIF3), and G3BP1. FUS is involved in pre-mRNA maturation, and various mutations in FUS have been associated with ALS. Although FUS is found in stress granules, it is not believed to be critical for formation of stress granules. Like FUS, eIF3 is also not believed to be critical for formation of stress granules. As the name indicates, eIF3 is a eukaryotic initiation factor, but it is also involved in translational recycling. By contrast, G3BP1 is believed to initiate formation of stress granules and is potentially critical to maintaining their structure. G3BP1 is an RNA binding protein and an element of the Ras signaling transduction pathway. These three proteins were tracked within cells to determine if compounds could preferentially exclude one of these proteins from stress granules without dissolving the stress granule.
Three cell lines (HeLa Kyoto, HeLa comprising a bacterial artificial chromosome (BAC) encoding FUS-GFP, and induced pluripotent stem cells (iPS) expressing FUS-GFP) were separately grown in culture. 1200 compounds from a compound library were exposed individually at concentrations of 1 μM, 5 μM, or 25 μM to one of the cell lines for one hour. For some compounds, this procedure was repeated for one or both of the other cell lines. Cells that were not exposed to the compounds (DMSO-only vehicle treatment) were used as controls. The cells were then exposed to arsenate stress for 1 hour to stimulate the formation of stress granules, using a final concentration of 2 mM Potassium Arsenate (Sigma A6631, diluted in PBS).
as §1
as §2, with “40×” for “40× (primary screen) and 20× (potency testing)”, “Heidelberg) and” for “Heidelberg),”, “7:R100).” for “7:R100); or, for potency testing, data were analyzed using Harmony (PerkinElmer, Waltham MA) and Vault (Collaborative Drug Discovery, Burlingame CA).”
In addition, z-scores were calculated for every test compound using the formula: z=(x−x)/S where x is the mean of the sample, and S is the standard deviation of the sample. […] Results

[3] = system: stress granules of stressed HeLa cells carrying BAC FUS-GFP; assay: Dose-response / potency testing for FUS, eIF3 and G3BP1 in stress granules (FIG. 11); settings: 0.0021-30 μM, number of cytoplasmic drops per cell, four parameter logistic fit
Source text: FIG. 11 is a plot of dose-response curves for FUS, eIF3, and G3BP1 in stress granules of stressed HeLa cells carrying BAC FUS-GFP treated with YM155.
The methods used in this example were similar to those discussed in Example 1. In brief, three cell lines (HeLa Kyoto, HeLa comprising a bacterial artificial chromosome (BAC) encoding FUS-GFP, and induced pluripotent stem cells (iPS) expressing FUS-GFP) were separately grown in culture. 1200 compounds from a compound library were exposed individually at concentrations of 1 μM, 5 μM, or 25 μM to one of the cell lines for one hour. For some compounds, this procedure was repeated for one or both of the other cell lines. […]
A spinning disk confocal microscope was used to acquire images of the samples using confocal fluorescence at 405/488/561/640 nm. […] The exposure times were adjusted to the fluorescence emission intensity specific for each label. […] Image acquisition was automated, and the resulting data were analyzed using KNIME (Berthold et al., 2008, Data Analysis, Machine Learning and Applications. Studies in Classification, Data Analysis, and Knowledge Organization. Springer, Berlin, Heidelberg), CellProfiler (Carpenter et al., 2006, Genome Biol 7:R100); or, for potency testing, data were analyzed using Harmony (PerkinElmer, Waltham MA) and Vault (Collaborative Drug Discovery, Burlingame CA). […]

Q: For COc1cc2c(Oc3ccc4[nH]c(C)cc4c3F)ncnc2cc1OCCCN1CCCC1 [Cediranib], which “Selectivity (Selective and Non-Selective Condensate Disrupters)” value [1] is on record?
A: eIF3 and FUS- selective

Q: For COc1ncc(-c2ccc3nccc(-c4ccnnc4)c3c2)cc1NS(=O)(=O)c1ccc(F)cc1F [Omipalisib], which “Selective and Non-Selective Condensate Disrupters (selectivity of exclusion of FUS, eIF3, G3BP1 from stress granules)” value [2] is on record?
A: Non-selective

Q: Which “Selective and Non-Selective Condensate Disrupters (selectivity of exclusion of FUS, eIF3, G3BP1 from stress granules)” value [2] does the source give for CC1(C)CCC2=C(O1)c1ccccc1C(=O)C2=O [Beta-Lapachone] here?
A: eIF3-selective

Q: And the “Selectivity (Selective and Non-Selective Condensate Disrupters)” value [1]?
A: eIF3-selective

Q: With CNC(=O)CN1CCC(Oc2cc3c(Nc4cccc(Cl)c4F)ncnc3cc2OC)CC1 [AZD8931] as the compound, how does the “Selective and Non-Selective Condensate Disrupters (selectivity of exclusion of FUS, eIF3, G3BP1 from stress granules)” value [2] read?
A: eIF3-selective

Q: How did the “Selectivity (Selective and Non-Selective Condensate Disrupters)” value [1] turn out when Cn1cc(C2=C(c3cn(CCCSC(=N)N)c4ccccc34)C(=O)NC2=O)c2ccccc21 [Bisindolylmaleimide IX] was run?
A: eIF3-selective

Q: O=C(O)CCc1ccc(NCc2cccc(Oc3ccccc3)c2)cc1 [GW9508] was tested. Which “Selective and Non-Selective Condensate Disrupters (selectivity of exclusion of FUS, eIF3, G3BP1 from stress granules)” value [2] did it give?
A: FUS-selective

Q: Which “Selective and Non-Selective Condensate Disrupters (selectivity of exclusion of FUS, eIF3, G3BP1 from stress granules)” value [2] does the source give for COc1cc(CCc2cc(NC(=O)c3ccc(N4C[C@@H](C)N[C@@H](C)C4)cc3)n[nH]2)cc(OC)c1 [AZD4547] here?
A: Non-selective

Q: With C[C@H]1CCC/C=C/[C@@H]2C[C@H](O)C[C@H]2[C@H](O)/C=C/C(=O)O1 [Brefeldin A] as the compound, how does the “Selective and Non-Selective Condensate Disrupters (selectivity of exclusion of FUS, eIF3, G3BP1 from stress granules)” value [2] read?
A: FUS-selective

Q: O=C(c1ccc(F)cc1)C1CCN(CCn2c(=O)[nH]c3ccccc3c2=O)CC1 [Ketanserin] was tested. Which “Selective and Non-Selective Condensate Disrupters (selectivity of exclusion of FUS, eIF3, G3BP1 from stress granules)” value [2] did it give?
A: FUS-selective

Q: COc1ccc(-c2cc3c(C)nc(N)nc3n(C3CCC(OCCO)CC3)c2=O)cn1 (stereo not drawn) [PF-04691502] was tested. Which “Selectivity (Selective and Non-Selective Condensate Disrupters)” value [1] did it give?
A: Non-selective

Q: Which “Selective and Non-Selective Condensate Disrupters (selectivity of exclusion of FUS, eIF3, G3BP1 from stress granules)” value [2] does the source give for COc1cc(N2CCC(N)CC2)ccc1Nc1ncc(Cl)c(-c2c[nH]c3ccccc23)n1 [AZD3463] here?
A: FUS-selective

Q: Cc1ccc(NC(=O)c2ccc(CN3CCN(C)CC3)cc2)cc1Nc1nc(-c2cccnc2)cs1 [Masitinib] was tested. Which “Selectivity (Selective and Non-Selective Condensate Disrupters)” value [1] did it give?
A: FUS protein and iPSC cell selective

Q: With COCCn1c2c([n+](Cc3cnccn3)c1C)C(=O)c1ccccc1C2=O.[Br-] [YM155 (Sepantronium Bromide), Sepantronium Bromide] as the compound, how does the “Selective and Non-Selective Condensate Disrupters (selectivity of exclusion of FUS, eIF3, G3BP1 from stress granules)” value [2] read?
A: eIF3-selective

Q: And the “Selectivity (Selective and Non-Selective Condensate Disrupters)” value [1]?
A: eIF3-selective

Q: What about the “potency (similar to IC50) for exclusion of a specific protein from stress granules relative to others” value [3] of the same compound?
A: exclusion of eIF3 at lower concentration of compound relative to FUS and G3BP1

Q: What does the source list for Cc1cnc(Nc2ccc(N3CCN(C)CC3)cc2)nc1Nc1cccc(S(=O)(=O)NC(C)(C)C)c1 [TG101209]?
A: Selective and Non-Selective Condensate Disrupters (selectivity of exclusion of FUS, eIF3, G3BP1 from stress granules) [2]: Non-selective; Selectivity (Selective and Non-Selective Condensate Disrupters) [1]: Non-selective

Q: For NC(=O)CCCCC1CCSS1 (stereo not drawn) [Lipoamide], which “Selective and Non-Selective Condensate Disrupters (selectivity of exclusion of FUS, eIF3, G3BP1 from stress granules)” value [2] is on record?
A: Non-selective

Q: And the “Selectivity (Selective and Non-Selective Condensate Disrupters)” value [1]?
A: Non-selective

Q: With Cc1cc2cc3ccc(N(C)C)cc3nc2cc1N [Coriphosphine O] as the compound, how does the “Selectivity (Selective and Non-Selective Condensate Disrupters)” value [1] read?
A: FUS-selective
